Where a SMILES comes first, the peptide text is derived from it. [ ]: non-standard residue; d: D form.

The target of experiment [1] is T1, PSD-95-PDZ2 (Homo sapiens, UniProt P78352, V178C).
T1 construct: screened with the TAMRA labelled PSD-95-PDZ2-V178C domain; 7xHis (N); made in house
The experiment in a line: SPOT peptide array screening with TAMRA labelled PSD-95-PDZ2. The following applies: SPOT array, TAMRA labelled PSD-95-PDZ2-V178C, normalized to WT. The experiment is classed as binding. As to the method:
SPOT peptide array synthesis. To generate the cyclic nNOSβ-hairpin arrays, we used the Intavis MultiPep spotter (Intavis Bioanalytical instruments). The membranes employed in this assay were SynthoPlan APEG CE (standard amino-modified acid stable sellulose membrane with a PEG-spacer), 10×15 cm with a loading of 400 nmol cm^−2. Solutions of 0.3 M Fmoc-AA-OH and 0.3 M Oxyma Pure were prepared in N-methyl-2-pyrrolidone (NMP). The activator solution consisted of 0.3 M DIC and 0.3 M of 2,4,6-trimethylpyridine (Collidine) in NMP. The capping solution consisted of a solution of 1 M acetic anhydride and 0.05 M of 4-dimethylaminopyridine (DMAP) in NMP. The deprotection solution consisted of 20% piperidine in NMP. AA couplings were performed 1 h,4 times. Deprotection of the Fmoc groups was performed 15min,2 times. Membrane washing between couplings or deprotections was performed with NMP and ethanol. Elongation of peptides in cellulose membrane was started by coupling first the Fmoc-PEG(9)-OH (Iris Biotech) and the subsequent mixture of Fmoc-Gly-OH (25%) and Boc-Gly-OH (75%) to lower the total loading of the membrane. Afterwards, the resin was capped with the capping solution and extensively washed and soaked in bromophenol blue (BPB) as a quality control to reveal the SPOTS with a functional amino group. Then, we coupled the quasi-orthogonal group Fmoc-Glu-PP, and carried out the rest of the synthesis until peptide completion. The cellulose bound linear peptides were finally treated with a solution of 95% DCM, 3% TIPS and 2% TFA 3 times, 20 min. to remove the quasi-orthogonal group. Afterwards, the membrane was washed 5 times with DCM and neutralized with 5% DIPEA in DCM. The membrane was then washed 5 more times with DCM, 5 times with NMP and cyclized with 0.3M PyAOP and 0.3M of DIPEA in DMF for 3 h or overnight. Finally, the membrane was dried with DCM and the side-chain protecting groups were cleaved with the standard deprotection cocktail (95% TFA, 2.5% H2O and 2.5% TIPS) or with reagent K [TFA 82.5%, phenol 5%, H2O 5%, thioanisole 5% and 1,2-ethanedithiol (EDT) 2.5%] for 3 h.
SPOT membrane screening. Membranes were incubated with PBS pH 7.2+0.5% bovine serum albumin (BSA) for 1 h. After the incubation period, the membrane was dried and scanned with an Amershan Typhoon scanner, at 400V, Cy3 wavelength (532 nm). A TIF file of the screening and a file with the blank values were generated using the Image Quant software. Afterwards, a solution of 50 nM of TAMRA labelled PSD-95-PDZ2 domain was prepared in PBS pH 7.2+0.5% BSA and was added to the membrane. The membrane was left incubating in a Polymax 1040 rocking table for 1 h protected from the light. Passed the incubation time, the excess of labelled protein was removed by washing the membrane 3 times with PBS+0.5% BSA. Finally, the membrane fluorescence values were measured with the Amershan Typhoon scanner at 400V, Cy3 wavelength (532 nm). Using the Image Quant software, the TIF image of the screening and a file with the fluorescence values of the peptides with the TAMRA labelled PSD-95-PDZ2 were generated. The blank was then subtracted from the fluorescence values of the peptides screened against the TAMRA labelled PSD-95-PDZ2.
A deep mutational scan was performed on the WT scaffold, exchanging each AA to the remaining 19 L-AAs. Each array contained three copies of the individual peptides as technical replicates. Additionally, three controls were included in the design: the cyclic nNOS β-hairpin WT control (positive control), a linear nNOS peptide (cyclization control) and a cyclic nNOS β-hairpin with a F111V substitution (negative control previously tested in FP competition assays). For array screening, a mutation in PSD-95-PDZ2 residue V178 (PSD-95-PDZ2-V178C) was introduced, which was subsequently labelled with TAMRA maleimide. […]

Experiment [2] deals with T2, PSD-95-PDZ2 (Homo sapiens, UniProt P78352).
T2 construct: 7xHis (N); made in house; host or cells: Escherichia coli B21 pLys (for the mutants, 'as previously described')
The experiment in a line: Fluorescence polarization (FP) competition assay against cyclic nNOS TAMRA probe. The following applies: for Ki: FP competition, cyclic nNOS TAMRA probe, mean of triplicates, N.B. = not binding, read-out: Ki; for Relative Ki (Ki mut/Ki WT): FP inhibition constant normalized to WT value. The format is binding. For orientation: Polarisation of emitted light reports the rotation of a fluorescent probe.

Take `CC(C)C[C@@H]1NC(=O)[C@H](Cc2c[nH]cn2)NC(=O)[C@H]([C@@H](C)O)NC(=O)[C@H](CCC(N)=O)NC(=O)CNC(=O)[C@H]2CCCN2C(=O)[C@H](CCC(N)=O)NC(=O)[C@H]([C@@H](C)O)NC(=O)[C@H](C(C)C)NC(=O)[C@H](CCCNC(=N)N)NC(=O)[C@H](C)NC(=O)[C@H]([C@@H](C)O)NC(=O)[C@H](CCCCN)NC(=O)[C@@H]2CCCN2C(=O)[C@H]([C@@H](C)O)NC(=O)CNC(=O)[C@H](CC(=O)O)NC(=O)CNC(=O)[C@H]([C@@H](C)O)NC(=O)[C@H](Cc2ccccc2)NC(=O)[C@H]([C@@H](C)O)NC(=O)[C@H]([C@@H](C)O)NC(=O)[C@H](CCC(=O)O)NC1=O` [compound 70] (cyclo(THLETTFTGDGTPKTARVTQ[dP]GQ)): on PSD-95-PDZ2 [1], the “Normalized SPOT fluorescence (Mut/WT)” value is 0.06. At PSD-95-PDZ2 [2], the Ki (in general, a dissociation constant, usually derived from enzyme kinetics or from competition with a known ligand) came out at 1760 nM and the “Relative Ki (Ki mut/Ki WT)” value is listed as 1.17.
Regarding `CC[C@H](C)[C@@H]1NC(=O)[C@H]([C@@H](C)O)NC(=O)[C@H](CCCCN)NC(=O)[C@@H]2CCCN2C(=O)[C@H]([C@@H](C)O)NC(=O)CNC(=O)[C@H](C)NC(=O)CNC(=O)[C@H]([C@@H](C)O)NC(=O)[C@H](Cc2ccccc2)NC(=O)[C@H]([C@@H](C)O)NC(=O)[C@H]([C@@H](C)O)NC(=O)[C@H](CCC(=O)O)NC(=O)[C@H](CC(C)C)NC(=O)[C@H](Cc2c[nH]cn2)NC(=O)[C@H]([C@@H](C)O)NC(=O)[C@H](CCC(N)=O)NC(=O)CNC(=O)[C@H]2CCCN2C(=O)[C@H](CCC(N)=O)NC(=O)[C@H]([C@@H](C)O)NC(=O)[C@H](C(C)C)NC(=O)[C@H](CCCNC(=N)N)NC1=O` [compound 64] (cyclo(THLETTFTGAGTPKTIRVTQ[dP]GQ)), on PSD-95-PDZ2 [1], the “Normalized SPOT fluorescence (Mut/WT)” value is given as 1.80. The “Relative Ki (Ki mut/Ki WT)” value at PSD-95-PDZ2 [2] was 2.15.
For the molecule `CC[C@H](C)[C@@H]1NC(=O)[C@H]([C@@H](C)O)NC(=O)[C@H](CCCCN)NC(=O)[C@@H]2CCCN2C(=O)[C@H]([C@@H](C)O)NC(=O)[C@H](C)NC(=O)[C@H](CC(=O)O)NC(=O)CNC(=O)[C@H]([C@@H](C)O)NC(=O)[C@H](Cc2ccccc2)NC(=O)[C@H]([C@@H](C)O)NC(=O)[C@H]([C@@H](C)O)NC(=O)[C@H](CCC(=O)O)NC(=O)[C@H](CC(C)C)NC(=O)[C@H](Cc2c[nH]cn2)NC(=O)[C@H]([C@@H](C)O)NC(=O)[C@H](CCC(N)=O)NC(=O)CNC(=O)[C@H]2CCCN2C(=O)[C@H](CCC(N)=O)NC(=O)[C@H]([C@@H](C)O)NC(=O)[C@H](C(C)C)NC(=O)[C@H](CCCNC(=N)N)NC1=O` [compound 65] (cyclo(THLETTFTGDATPKTIRVTQ[dP]GQ)), at PSD-95-PDZ2 [1], the “Normalized SPOT fluorescence (Mut/WT)” value came to 1.34. Also, at PSD-95-PDZ2 [2], the Ki was 410 nM and the “Relative Ki (Ki mut/Ki WT)” value worked out at 0.27.
The corresponding values for `CC[C@H](C)[C@@H]1NC(=O)[C@H](C)NC(=O)[C@H](CCCCN)NC(=O)[C@@H]2CCCN2C(=O)[C@H]([C@@H](C)O)NC(=O)CNC(=O)[C@H](CC(=O)O)NC(=O)CNC(=O)[C@H]([C@@H](C)O)NC(=O)[C@H](Cc2ccccc2)NC(=O)[C@H]([C@@H](C)O)NC(=O)[C@H]([C@@H](C)O)NC(=O)[C@H](CCC(=O)O)NC(=O)[C@H](CC(C)C)NC(=O)[C@H](Cc2c[nH]cn2)NC(=O)[C@H]([C@@H](C)O)NC(=O)[C@H](CCC(N)=O)NC(=O)CNC(=O)[C@H]2CCCN2C(=O)[C@H](CCC(N)=O)NC(=O)[C@H]([C@@H](C)O)NC(=O)[C@H](C(C)C)NC(=O)[C@H](CCCNC(=N)N)NC1=O` [compound 69] (cyclo(THLETTFTGDGTPKAIRVTQ[dP]GQ)) are 0.09, 17000 nM and 11.33.
The corresponding values for `CC[C@H](C)[C@@H]1NC(=O)[C@H]([C@@H](C)O)NC(=O)[C@H](CCCCN)NC(=O)[C@@H]2CCCN2C(=O)[C@H]([C@@H](C)O)NC(=O)[C@@H]2CCCN2C(=O)[C@H](CC(=O)O)NC(=O)CNC(=O)[C@H]([C@@H](C)O)NC(=O)[C@H](Cc2ccccc2)NC(=O)[C@H]([C@@H](C)O)NC(=O)[C@H]([C@@H](C)O)NC(=O)[C@H](CCC(=O)O)NC(=O)[C@H](CC(C)C)NC(=O)[C@H](Cc2c[nH]cn2)NC(=O)[C@H]([C@@H](C)O)NC(=O)[C@H](CCC(N)=O)NC(=O)CNC(=O)[C@H]2CCCN2C(=O)[C@H](CCC(N)=O)NC(=O)[C@H]([C@@H](C)O)NC(=O)[C@H](C(C)C)NC(=O)[C@H](CCCNC(=N)N)NC1=O` [compound 30] (cyclo(THLETTFTGDPTPKTIRVTQ[dP]GQ)) are 2.33, 420 nM and 0.28.
As for `CC[C@H](C)[C@@H]1NC(=O)[C@H]([C@@H](C)O)NC(=O)[C@H](CCCCN)NC(=O)[C@@H]2CCCN2C(=O)[C@H]([C@@H](C)O)NC(=O)CNC(=O)[C@H](CC(=O)O)NC(=O)CNC(=O)[C@H]([C@@H](C)O)NC(=O)[C@H](Cc2ccccc2)NC(=O)[C@H]([C@@H](C)O)NC(=O)[C@H]([C@@H](C)O)NC(=O)[C@H](C)NC(=O)[C@H](CC(C)C)NC(=O)[C@H](Cc2c[nH]cn2)NC(=O)[C@H]([C@@H](C)O)NC(=O)[C@H](CCC(N)=O)NC(=O)CNC(=O)[C@H]2CCCN2C(=O)[C@H](CCC(N)=O)NC(=O)[C@H]([C@@H](C)O)NC(=O)[C@H](C(C)C)NC(=O)[C@H](CCCNC(=N)N)NC1=O` [compound 58] (cyclo(THLATTFTGDGTPKTIRVTQ[dP]GQ)), the “Normalized SPOT fluorescence (Mut/WT)” value at PSD-95-PDZ2 [1] is given as 0.15. The “Relative Ki (Ki mut/Ki WT)” value on PSD-95-PDZ2 [2] is on record as 14.11.
For the molecule `CC[C@H](C)[C@@H]1NC(=O)[C@H]([C@@H](C)O)NC(=O)[C@H](CCCCN)NC(=O)[C@@H]2CCCN2C(=O)[C@H](CC(=O)O)NC(=O)CNC(=O)[C@H](CC(=O)O)NC(=O)CNC(=O)[C@H]([C@@H](C)O)NC(=O)[C@H](Cc2ccccc2)NC(=O)[C@H]([C@@H](C)O)NC(=O)[C@H]([C@@H](C)O)NC(=O)[C@H](CCC(=O)O)NC(=O)[C@H](CC(C)C)NC(=O)[C@H](Cc2c[nH]cn2)NC(=O)[C@H]([C@@H](C)O)NC(=O)[C@H](CCC(N)=O)NC(=O)CNC(=O)[C@H]2CCCN2C(=O)[C@H](CCC(N)=O)NC(=O)[C@H]([C@@H](C)O)NC(=O)[C@H](C(C)C)NC(=O)[C@H](CCCNC(=N)N)NC1=O` [compound 32] (cyclo(THLETTFTGDGDPKTIRVTQ[dP]GQ)), at PSD-95-PDZ2 [1], the “Normalized SPOT fluorescence (Mut/WT)” value is reported as 1.85. At PSD-95-PDZ2 [2], the Ki amounted to 480 nM and the “Relative Ki (Ki mut/Ki WT)” value came to 0.32.
On the same counts, the results for `CC[C@H](C)[C@@H]1NC(=O)[C@H]([C@@H](C)O)NC(=O)[C@H](CCCCN)NC(=O)[C@@H]2CCCN2C(=O)[C@H]([C@@H](C)O)NC(=O)CNC(=O)[C@H](CC(=O)O)NC(=O)CNC(=O)[C@H]([C@@H](C)O)NC(=O)[C@H](Cc2ccccc2)NC(=O)[C@H]([C@@H](C)O)NC(=O)[C@H]([C@@H](C)O)NC(=O)[C@H](CCC(=O)O)NC(=O)[C@H](CC(C)C)NC(=O)[C@H](Cc2c[nH]cn2)NC(=O)[C@H](Cc2ccc(O)cc2)NC(=O)[C@H](CCC(N)=O)NC(=O)CNC(=O)[C@H]2CCCN2C(=O)[C@H](CCC(N)=O)NC(=O)[C@H]([C@@H](C)O)NC(=O)[C@H](C(C)C)NC(=O)[C@H](CCCNC(=N)N)NC1=O` [compound 24] (cyclo(YHLETTFTGDGTPKTIRVTQ[dP]GQ)) are 1.32, 1470 nM and 0.98.

For the origin of these results see patent US20230220021A1, “CYCLIC PEPTIDE INHIBITORS OF PSD-95 AND USES THEREOF” (University of Copenhagen, priority 2020, published 2023).
